Laboratory results: publication PMC3914206

What was measured:
Type in all cases: binding
Conditions in all cases: Compound Concentration 10 µM
panel of 442 kinases [1] = molecular target: T1, panel of 442 kinases (Homo sapiens, UniProt O75914)
T1 construct: purchased KINOMEscan
Source text: (§1) We assessed the selectivity of members of this scaffold using the KINOMEscan methodology across a near comprehensive panel of 442 kinases [[18,27]].

panel of 442 kinases [2] = molecular target: T2, panel of 442 kinases (Homo sapiens, UniProt P07333)
T2 construct: purchased KINOMEscan
Source text: as §1

panel of 442 kinases [3] = molecular target: T3, panel of 442 kinases (Homo sapiens, UniProt Q15746)
T3 construct: purchased KINOMEscan
Source text: as §1

panel of 442 kinases [4] = molecular target: T4, panel of 442 kinases (Homo sapiens, UniProt Q9Y6R4)
T4 construct: purchased KINOMEscan
Source text: as §1

T3 sequence (Q15746 whole entry): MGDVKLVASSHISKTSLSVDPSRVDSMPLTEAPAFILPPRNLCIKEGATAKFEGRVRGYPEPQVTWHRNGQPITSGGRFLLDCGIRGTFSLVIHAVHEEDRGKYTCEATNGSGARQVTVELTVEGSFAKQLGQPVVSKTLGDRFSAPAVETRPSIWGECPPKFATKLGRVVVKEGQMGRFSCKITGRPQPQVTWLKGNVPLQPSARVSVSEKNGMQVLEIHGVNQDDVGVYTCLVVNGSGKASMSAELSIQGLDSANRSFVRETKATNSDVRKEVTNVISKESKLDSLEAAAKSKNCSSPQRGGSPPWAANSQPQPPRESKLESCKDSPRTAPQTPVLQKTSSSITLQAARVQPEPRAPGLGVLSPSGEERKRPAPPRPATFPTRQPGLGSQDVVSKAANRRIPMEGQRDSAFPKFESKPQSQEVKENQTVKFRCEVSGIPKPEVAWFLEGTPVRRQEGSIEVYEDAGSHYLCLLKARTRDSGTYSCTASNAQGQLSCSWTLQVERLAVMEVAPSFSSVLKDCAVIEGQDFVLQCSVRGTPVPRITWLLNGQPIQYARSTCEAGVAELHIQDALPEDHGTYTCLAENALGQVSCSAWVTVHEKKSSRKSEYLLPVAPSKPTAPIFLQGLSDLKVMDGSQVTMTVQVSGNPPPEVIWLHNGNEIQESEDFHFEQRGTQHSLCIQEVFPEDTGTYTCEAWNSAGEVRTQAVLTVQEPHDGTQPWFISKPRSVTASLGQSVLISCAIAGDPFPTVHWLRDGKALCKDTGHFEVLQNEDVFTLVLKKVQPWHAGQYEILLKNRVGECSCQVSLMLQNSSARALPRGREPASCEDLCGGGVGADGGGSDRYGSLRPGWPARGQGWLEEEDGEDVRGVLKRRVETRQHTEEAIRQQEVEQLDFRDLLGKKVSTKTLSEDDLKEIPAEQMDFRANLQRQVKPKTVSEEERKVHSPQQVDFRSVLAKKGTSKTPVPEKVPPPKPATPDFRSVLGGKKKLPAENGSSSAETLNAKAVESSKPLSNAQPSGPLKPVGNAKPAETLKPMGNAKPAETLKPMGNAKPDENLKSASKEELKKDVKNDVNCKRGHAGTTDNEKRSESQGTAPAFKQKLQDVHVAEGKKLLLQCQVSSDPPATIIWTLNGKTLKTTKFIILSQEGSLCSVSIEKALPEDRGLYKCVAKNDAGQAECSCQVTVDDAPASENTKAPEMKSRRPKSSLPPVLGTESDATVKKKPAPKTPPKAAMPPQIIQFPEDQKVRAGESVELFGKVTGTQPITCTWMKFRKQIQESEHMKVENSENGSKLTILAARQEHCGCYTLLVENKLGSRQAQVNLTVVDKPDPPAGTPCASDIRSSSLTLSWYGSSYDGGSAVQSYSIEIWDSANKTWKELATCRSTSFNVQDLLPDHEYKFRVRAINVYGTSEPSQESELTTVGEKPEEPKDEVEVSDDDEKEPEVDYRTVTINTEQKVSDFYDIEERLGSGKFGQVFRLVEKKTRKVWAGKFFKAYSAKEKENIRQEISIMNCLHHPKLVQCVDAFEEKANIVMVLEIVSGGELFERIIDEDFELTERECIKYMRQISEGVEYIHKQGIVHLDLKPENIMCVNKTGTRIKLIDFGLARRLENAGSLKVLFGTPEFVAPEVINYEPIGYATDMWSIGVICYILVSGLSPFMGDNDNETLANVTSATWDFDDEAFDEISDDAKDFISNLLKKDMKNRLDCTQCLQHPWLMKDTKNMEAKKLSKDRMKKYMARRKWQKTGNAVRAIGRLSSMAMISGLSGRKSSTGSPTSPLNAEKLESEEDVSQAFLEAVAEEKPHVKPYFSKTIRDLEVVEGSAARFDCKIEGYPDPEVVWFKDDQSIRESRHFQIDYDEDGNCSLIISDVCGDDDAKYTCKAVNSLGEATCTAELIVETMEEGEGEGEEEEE
T2 sequence (P07333 20-972): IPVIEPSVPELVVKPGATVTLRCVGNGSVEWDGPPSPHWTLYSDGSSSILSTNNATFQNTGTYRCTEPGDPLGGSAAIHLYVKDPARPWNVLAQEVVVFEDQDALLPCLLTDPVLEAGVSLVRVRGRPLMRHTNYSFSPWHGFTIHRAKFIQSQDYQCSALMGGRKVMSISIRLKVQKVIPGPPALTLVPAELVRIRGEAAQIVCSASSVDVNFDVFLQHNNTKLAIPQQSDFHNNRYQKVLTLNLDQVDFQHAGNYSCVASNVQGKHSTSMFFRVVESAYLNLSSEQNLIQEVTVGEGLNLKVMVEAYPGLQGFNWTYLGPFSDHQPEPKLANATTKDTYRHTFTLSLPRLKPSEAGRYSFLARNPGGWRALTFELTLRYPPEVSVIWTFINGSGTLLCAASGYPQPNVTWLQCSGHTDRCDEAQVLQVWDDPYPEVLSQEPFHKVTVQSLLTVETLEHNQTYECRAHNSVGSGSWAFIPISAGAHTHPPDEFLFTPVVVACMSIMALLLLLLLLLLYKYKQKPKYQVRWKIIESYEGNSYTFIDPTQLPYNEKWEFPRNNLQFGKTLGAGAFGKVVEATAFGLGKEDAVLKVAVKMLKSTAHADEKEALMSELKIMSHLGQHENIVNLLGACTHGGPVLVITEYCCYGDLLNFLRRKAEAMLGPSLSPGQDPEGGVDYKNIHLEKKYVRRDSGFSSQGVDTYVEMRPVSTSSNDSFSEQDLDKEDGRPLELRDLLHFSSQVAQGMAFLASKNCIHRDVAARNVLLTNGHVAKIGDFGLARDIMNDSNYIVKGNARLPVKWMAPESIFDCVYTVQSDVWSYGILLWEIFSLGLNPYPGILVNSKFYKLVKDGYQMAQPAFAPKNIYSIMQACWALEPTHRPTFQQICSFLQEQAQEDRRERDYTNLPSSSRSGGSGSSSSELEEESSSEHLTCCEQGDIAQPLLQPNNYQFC
T1 sequence (O75914 whole entry): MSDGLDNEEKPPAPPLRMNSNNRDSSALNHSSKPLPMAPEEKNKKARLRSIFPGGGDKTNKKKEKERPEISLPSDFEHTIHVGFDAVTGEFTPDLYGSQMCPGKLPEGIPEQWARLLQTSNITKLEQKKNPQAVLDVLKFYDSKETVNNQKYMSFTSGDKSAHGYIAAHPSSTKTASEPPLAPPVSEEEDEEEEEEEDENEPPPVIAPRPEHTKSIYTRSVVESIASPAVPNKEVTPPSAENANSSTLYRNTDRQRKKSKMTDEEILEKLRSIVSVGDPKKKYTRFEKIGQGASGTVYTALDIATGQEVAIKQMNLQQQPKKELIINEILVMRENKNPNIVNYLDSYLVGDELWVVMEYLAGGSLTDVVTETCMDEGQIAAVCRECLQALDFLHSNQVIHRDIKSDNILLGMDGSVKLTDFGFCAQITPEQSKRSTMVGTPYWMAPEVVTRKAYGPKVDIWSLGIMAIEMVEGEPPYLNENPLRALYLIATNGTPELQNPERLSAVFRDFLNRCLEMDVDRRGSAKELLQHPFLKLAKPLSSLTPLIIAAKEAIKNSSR
T4 sequence (Q9Y6R4 whole entry): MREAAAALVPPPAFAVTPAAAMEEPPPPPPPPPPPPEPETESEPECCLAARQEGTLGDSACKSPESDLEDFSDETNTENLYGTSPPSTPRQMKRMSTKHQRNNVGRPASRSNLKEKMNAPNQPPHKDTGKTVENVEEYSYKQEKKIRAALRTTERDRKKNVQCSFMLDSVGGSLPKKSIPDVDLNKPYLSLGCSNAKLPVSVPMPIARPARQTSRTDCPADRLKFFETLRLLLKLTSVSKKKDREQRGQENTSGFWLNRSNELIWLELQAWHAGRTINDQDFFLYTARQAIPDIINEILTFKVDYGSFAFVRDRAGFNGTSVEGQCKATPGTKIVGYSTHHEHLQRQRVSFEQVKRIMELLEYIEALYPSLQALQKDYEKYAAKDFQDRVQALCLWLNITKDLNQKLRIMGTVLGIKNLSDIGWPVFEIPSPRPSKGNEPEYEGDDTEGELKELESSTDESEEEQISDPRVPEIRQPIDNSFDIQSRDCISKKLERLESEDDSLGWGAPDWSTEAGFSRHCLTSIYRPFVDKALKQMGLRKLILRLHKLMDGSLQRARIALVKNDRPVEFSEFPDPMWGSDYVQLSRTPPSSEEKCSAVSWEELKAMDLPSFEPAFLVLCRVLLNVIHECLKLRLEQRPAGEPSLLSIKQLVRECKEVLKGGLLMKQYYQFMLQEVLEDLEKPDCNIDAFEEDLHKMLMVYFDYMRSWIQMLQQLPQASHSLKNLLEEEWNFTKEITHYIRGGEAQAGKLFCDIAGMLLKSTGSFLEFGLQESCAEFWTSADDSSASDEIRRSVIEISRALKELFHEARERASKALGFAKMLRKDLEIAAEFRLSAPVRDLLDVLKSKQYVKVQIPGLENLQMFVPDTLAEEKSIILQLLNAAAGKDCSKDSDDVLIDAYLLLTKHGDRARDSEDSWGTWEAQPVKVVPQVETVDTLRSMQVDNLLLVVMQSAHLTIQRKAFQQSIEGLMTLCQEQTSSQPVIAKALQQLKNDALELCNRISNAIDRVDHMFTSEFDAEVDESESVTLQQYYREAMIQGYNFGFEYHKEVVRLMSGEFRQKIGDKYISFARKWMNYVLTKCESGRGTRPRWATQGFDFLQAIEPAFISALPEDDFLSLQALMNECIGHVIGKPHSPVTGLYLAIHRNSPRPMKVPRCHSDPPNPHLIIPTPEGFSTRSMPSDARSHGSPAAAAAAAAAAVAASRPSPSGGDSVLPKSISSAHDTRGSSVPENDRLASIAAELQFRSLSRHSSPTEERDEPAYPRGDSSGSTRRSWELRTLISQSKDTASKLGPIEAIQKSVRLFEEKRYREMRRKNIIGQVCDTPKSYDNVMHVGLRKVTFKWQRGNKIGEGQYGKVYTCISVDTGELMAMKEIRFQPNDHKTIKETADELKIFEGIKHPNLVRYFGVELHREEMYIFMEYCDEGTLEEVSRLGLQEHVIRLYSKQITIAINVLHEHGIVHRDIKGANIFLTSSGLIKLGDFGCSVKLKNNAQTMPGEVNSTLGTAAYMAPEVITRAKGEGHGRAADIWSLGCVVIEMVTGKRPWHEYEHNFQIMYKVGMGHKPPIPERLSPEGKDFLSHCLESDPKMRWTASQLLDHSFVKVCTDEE

## COc1cc(C(=O)N2CCC(N3CCN(C)CC3)CC2)ccc1Nc1ncc2c(n1)N1CCc3cccc(c31)C(=O)N2C [Compound 24]
Panel of 442 kinases [1]
  KINOMEscan: PAK3: 80
Panel of 442 kinases [2]
  KINOMEscan: CSF1R: 57
Panel of 442 kinases [3]
  KINOMEscan: MYLK: 2.9

## CCOc1cc(C(=O)N2CCC(N3CCN(C)CC3)CC2)ccc1Nc1ncc2c(n1)N(C1CCCC1)c1ccccc1C(=O)N2C [Compound 26]
Panel of 442 kinases [1]
  KINOMEscan: PAK3: 95
Panel of 442 kinases [2]
  KINOMEscan: CSF1R: 100
Panel of 442 kinases [3]
  KINOMEscan: MYLK: 98
Panel of 442 kinases [4]
  KINOMEscan: MAP3K4: 100

## COc1cc(C(=O)N2CCC(N3CCN(C)CC3)CC2)ccc1Nc1ncc2c(n1)N(C1CCCC1)c1ccccc1C(=O)N2C [Compound 25, 11-cyclopentyl-2-((2-methoxy-4-(4-(4-methylpiperazin-1-yl)piperidine-1-carbonyl)phenyl)amino)-5-methyl-5H-benzo[e]pyrimido[5,4-b][1,4]diazepin-6(11H)-one]
Panel of 442 kinases [1]
  KINOMEscan: PAK3: 69
Panel of 442 kinases [2]
  KINOMEscan: CSF1R: 56
Panel of 442 kinases [3]
  KINOMEscan: MYLK: 73
Panel of 442 kinases [4]
  KINOMEscan: MAP3K4: 100

## COc1cc(C(=O)N2CCC(N3CCN(C)CC3)CC2)ccc1Nc1ncc2c(n1)N(C)c1ccccc1C(=O)N2C [15 (LRRK2-IN-1)]
Panel of 442 kinases [1]
  KINOMEscan: PAK3: 83
Panel of 442 kinases [2]
  KINOMEscan: CSF1R: 98
Panel of 442 kinases [3]
  KINOMEscan: MYLK: 8.7
Panel of 442 kinases [4]
  KINOMEscan: MAP3K4: 100
